Source: ChEMBL document CHEMBL3886432, “Purinylpyridinylamino-2,4-difluorophenyl sulfonamide derivative, pharmaceutically acceptable salt thereof, preparation method thereof, and pharmaceutical composition with inhibitory activity against Raf kinase, containing same as active ingredient” (2015)

Target: Serine/threonine-protein kinase B-raf (Homo sapiens, UniProt P15056)
Test: The solutions in the tube were collected on the bottom via centrifugation and were reacted at 30° C. for 30 minutes.

Serine/threonine-protein kinase B-raf, sequence (P15056 whole entry): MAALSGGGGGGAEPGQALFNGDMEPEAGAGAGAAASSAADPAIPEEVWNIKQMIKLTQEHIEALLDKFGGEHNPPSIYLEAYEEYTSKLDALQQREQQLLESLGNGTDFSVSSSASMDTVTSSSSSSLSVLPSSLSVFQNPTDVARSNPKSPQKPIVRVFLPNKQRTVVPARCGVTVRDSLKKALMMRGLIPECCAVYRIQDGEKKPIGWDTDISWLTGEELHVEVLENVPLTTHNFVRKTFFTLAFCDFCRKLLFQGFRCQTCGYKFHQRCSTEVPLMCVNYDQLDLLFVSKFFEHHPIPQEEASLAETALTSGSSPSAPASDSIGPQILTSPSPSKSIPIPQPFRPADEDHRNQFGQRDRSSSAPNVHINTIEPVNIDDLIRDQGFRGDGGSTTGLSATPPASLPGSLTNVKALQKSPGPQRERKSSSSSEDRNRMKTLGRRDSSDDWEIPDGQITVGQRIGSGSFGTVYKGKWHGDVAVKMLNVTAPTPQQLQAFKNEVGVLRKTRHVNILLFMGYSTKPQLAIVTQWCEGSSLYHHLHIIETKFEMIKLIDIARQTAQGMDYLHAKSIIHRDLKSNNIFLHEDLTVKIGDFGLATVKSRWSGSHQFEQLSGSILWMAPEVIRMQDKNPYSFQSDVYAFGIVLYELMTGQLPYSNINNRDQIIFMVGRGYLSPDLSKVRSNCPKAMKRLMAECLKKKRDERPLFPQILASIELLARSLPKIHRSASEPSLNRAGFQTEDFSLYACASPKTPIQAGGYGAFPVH

An IC50 of 20 nM was found for `O=S(=O)(Nc1ccc(F)c(Nc2ncccc2-c2ncnc3[nH]cnc23)c1F)c1ccc(Cl)s1` in this work.
